In the supplement of paper PMC13380429:

What was measured:
A549-ACE2 [1] = experiment: drug-induced phospholipidosis relative to tamoxifen; higher = more phospholipidosis
[2] = test system: A549-ACE2 infected with SARS-CoV-2; experiment: cell count relative to DMSO; higher = less toxic; conditions: 24 h
Caco-2 [3] = experiment: cell viability relative to DMSO; higher = less toxic; conditions: 72 h
HepG2 [4] = experiment: as above; conditions: 72 h
U2OS [5] = experiment: as above; conditions: 72 h
Vero E6 [6] = experiment: as above; conditions: 72 h
Caco-2 [7] = experiment: relative viability EC50 (midpoint between 100% and the lowest measured viability); higher = less toxic; conditions: 72 h
HepG2 [8] = experiment: as above; conditions: 72 h
U2OS [9] = experiment: as above; conditions: 72 h
Vero E6 [10] = experiment: as above; conditions: 72 h
[11] = test system: A549-ACE2 infected with SARS-CoV-2; experiment: SARS-CoV-2 infection rate relative to DMSO; higher = more infection; conditions: 24 h
[12] = test system: A549-ACE2 infected with SARS-CoV-2; experiment: morphology score (similarity to uninfected cells); higher = more like uninfected cells; conditions: 24 h
Caco-2 [13] = experiment: drug sensitivity score (DSS) for viability; higher = more toxic; extreme values may be limits of the assay; conditions: 72 h
HepG2 [14] = experiment: as above; conditions: 72 h
U2OS [15] = experiment: as above; conditions: 72 h
Vero E6 [16] = experiment: as above; conditions: 72 h
Calu-3 [17] = experiment: cell viability relative to DMSO; higher = less toxic; conditions: 72 h
Calu-3 [18] = experiment: relative viability EC50 (midpoint between 100% and the lowest measured viability); higher = less toxic; conditions: 72 h
A549-ACE2 [19] = experiment: phospholipidosis EC50; higher = less potent phospholipidosis inducer; conditions: 24 h
Calu-3 [20] = experiment: drug sensitivity score (DSS) for viability; higher = more toxic; extreme values may be limits of the assay; conditions: 72 h

N=C(N)c1cc2ccc(OC(=O)c3cccs3)cc2s1 [BCX-1470]
drug-induced phospholipidosis [%], A549-ACE2 [1]
Conditions | 0.3 µM | 0.833333 µM | 3.33333 µM | 6.66667 µM | 10 µM
24 h | 1.95 | 3.92 | 0.54 | 7.05 | 10.8
48 h | 1.86 | -0.27 | -2.94 | 10.7 | 17.1
72 h | 0.245 | -2.66 | -0.938 | 1.04 | 8.25

Conditions | SARS-CoV-2 infection rate, [11] [%] | cell count, [2] [%] | cell viability, Caco-2 [3] [%] | cell viability, HepG2 [4] [%] | cell viability, U2OS [5] [%] | cell viability, Vero E6 [6] [%] | morphology score, [12]
1 nM | – | – | 97.9 | 112 | 100 | 97 | –
10 nM | – | – | 96.1 | 100 | 100 | 95.2 | –
100 nM | – | – | 95.5 | 104 | 98.4 | 92.8 | –
0.3 µM | 97 | 102 | – | – | – | – | 0.05
1000 nM | – | – | 96.5 | 102 | 95.9 | 98.2 | –
3 µM | 99 | 99 | – | – | – | – | -0.11
10 µM | 54 | 95 | – | – | – | – | 0.59
10000 nM | – | – | 107 | 13.1 | 101 | 96.2 | –
30 µM | 22 | 52 | – | – | – | – | 0.39

Conditions | drug sensitivity score | relative viability EC50 [µM]
Caco-2 [7] | – | > 10
Caco-2 [13] | 0 | –
HepG2 [8] | – | 3.32
HepG2 [14] | 4.6 | –
U2OS [9] | – | > 10
U2OS [15] | 0 | –
Vero E6 [10] | – | > 10
Vero E6 [16] | 0 | –

CC(C)c1cnn2c(NCc3ccccc3)cc(NCCCCCCN)nc12 [BS-181]
drug-induced phospholipidosis [%], A549-ACE2 [1]
Conditions | 0.3 µM | 0.833333 µM | 3.33333 µM | 6.66667 µM | 10 µM | 30 µM
24 h | 0.84 | 1.04 | 6.25 | 11.9 | 29.1 | 83.9
48 h | 1.54 | 0.53 | 4.06 | 7 | 14.2 | 37.6
72 h | 2.87 | 1.74 | 3.1 | 5.35 | 9.65 | 19.3

Conditions | SARS-CoV-2 infection rate, [11] [%] | cell count, [2] [%] | cell viability, Caco-2 [3] [%] | cell viability, Calu-3 [17] [%] | cell viability, HepG2 [4] [%] | cell viability, U2OS [5] [%] | cell viability, Vero E6 [6] [%] | morphology score, [12]
1 nM | – | – | 101 | 100 | 97 | 102 | 98.5 | –
10 nM | – | – | 84 | 106 | 92 | 94.8 | 97.6 | –
100 nM | – | – | 122 | 99.9 | 98.1 | 101 | 99 | –
0.3 µM | 99 | 102 | – | – | – | – | – | 0.12
1000 nM | – | – | 90.2 | 115 | 90.3 | 96.1 | 94.6 | –
3 µM | 37 | 115 | – | – | – | – | – | 0.87
10 µM | 9 | 101 | – | – | – | – | – | 0.93
10000 nM | – | – | 79 | 87.3 | 80 | 91 | 86.1 | –
30 µM | 25 | 47 | – | – | – | – | – | 0.26

Conditions | drug sensitivity score | phospholipidosis EC50 [µM] | relative viability EC50 [µM]
A549-ACE2 [19] | – | 15 | –
Caco-2 [7] | – | – | > 10
Caco-2 [13] | 1.7 | – | –
Calu-3 [18] | – | – | > 10
Calu-3 [20] | 0 | – | –
HepG2 [8] | – | – | > 10
HepG2 [14] | 0.9 | – | –
U2OS [9] | – | – | > 10
U2OS [15] | 0 | – | –
Vero E6 [10] | – | – | > 10
Vero E6 [16] | 0.4 | – | –

C(#Cc1nc2ncccc2nc1OCCN1CCCC1)c1ccccc1 [GK921]
drug-induced phospholipidosis [%], A549-ACE2 [1]
Conditions | 24 h | 48 h | 72 h
0.3 µM | 2.77 | 8.46 | 11.7
0.833333 µM | 6.24 | 5.53 | 2.54

Conditions | SARS-CoV-2 infection rate, [11] [%] | cell count, [2] [%] | cell viability, Caco-2 [3] [%] | cell viability, Calu-3 [17] [%] | cell viability, HepG2 [4] [%] | cell viability, U2OS [5] [%] | cell viability, Vero E6 [6] [%] | morphology score, [12]
1 nM | – | – | 100 | 98.7 | 92.4 | 97.1 | 97.2 | –
10 nM | – | – | 98.2 | 90.9 | 99.3 | 95.7 | 97.6 | –
0.1 µM | 100 | 101 | – | – | – | – | – | 0.03
100 nM | – | – | 101 | 93.1 | 102 | 99.2 | 94.9 | –
0.3 µM | 102 | 102 | – | – | – | – | – | -0.05
1 µM | 101 | 95 | – | – | – | – | – | 0.02
1000 nM | – | – | 99.5 | 93.3 | 74.5 | 72.2 | 103 | –
3 µM | 53 | 86 | – | – | – | – | – | 0.48
10000 nM | – | – | 3.8 | 2.5 | -0.3 | -0.2 | 0 | –

Conditions | drug sensitivity score | relative viability EC50 [µM]
Caco-2 [7] | – | 3.13
Caco-2 [13] | 5.4 | –
Calu-3 [18] | – | 2.61
Calu-3 [20] | 6.4 | –
HepG2 [8] | – | 1.53
HepG2 [14] | 9.4 | –
U2OS [9] | – | 1.46
U2OS [15] | 9.7 | –
Vero E6 [10] | – | 3.35
Vero E6 [16] | 5.3 | –
